Patent US9382306B2, “Octapeptide compounds derived from somatostatin and the therapeutic use thereof” (IPSEN PHARMA S.A.S., priority 2008, dated 2016)
Bridge positions count the residues as written; N and C are the ends. Square brackets hold non-standard residues; d marks the D form. Peptide text beside a SMILES is read from it. ξ: configuration not given here. d2Nal = N[C@H](Cc1ccc2ccccc2c1)C(=O)O; Thr(3ξ) = CC(O)[C@H](N)C(=O)O

Experiments:
[1] = molecular target: T1, somatostatin receptors sub-type 2 (Homo sapiens, UniProt P30874); test: Affinity for somatostatin receptors: inhibition of [125I-Tyr11]SRIF-14 binding to membranes of transfected CHO-K1 cells; details: competitive inhibition of [125I-Tyr11]SRIF-14 binding, 37° C.
T1 construct: expressed in transfected cells; membrane preparations
T1 sequence (P30874 whole entry): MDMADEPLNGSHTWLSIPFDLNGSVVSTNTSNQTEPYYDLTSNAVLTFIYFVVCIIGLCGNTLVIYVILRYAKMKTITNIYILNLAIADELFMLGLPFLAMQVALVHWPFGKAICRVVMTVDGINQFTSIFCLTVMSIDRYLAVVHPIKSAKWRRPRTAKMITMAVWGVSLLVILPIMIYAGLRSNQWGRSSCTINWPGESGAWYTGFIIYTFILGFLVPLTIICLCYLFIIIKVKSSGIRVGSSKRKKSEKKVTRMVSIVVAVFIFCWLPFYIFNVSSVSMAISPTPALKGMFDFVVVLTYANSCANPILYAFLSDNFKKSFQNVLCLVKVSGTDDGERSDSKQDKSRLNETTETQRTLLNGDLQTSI
Experimental: The affinity of the compounds of the invention for the somatostatin receptors is determined by measurement of the inhibition of the bond of [125I-Tyr11]SRIF-14 to membrane preparations of transfected CHO-K1 cells.
The CHO-K1 cells expressing in a stable fashion each of the sub-types of somatostatin receptors are collected with 0.5 mM of EDTA and centrifuged at 500 g for 5 minutes at 4° C. The pellet is re-suspended in phosphate buffer (PBS) and centrifuged at 500 g for 5 minutes at 4° C. The pellet is re-suspended in Tris 50 mM buffer at pH 7.4 and centrifuged at 500 g for 5 minutes at 4° C. The cells are lyzed by sonication and centrifuged at 39,000 g for 10 minutes. The pellet is re-suspended in Tris 50 mM buffer at pH 7.4, an aliquot is removed for assaying the proteins and the remainder is centrifuged at 50,000 g for 10 minutes. The membranes obtained in this last pellet are stored at −80° C.
Measurement of the competitive inhibition of the bond of [125I-Tyr11]SRIF-14 (Perkin Elmer) on each of the sub-types of somatostatin receptors is carried out in duplicate in 96-well polypropylene plates. The cell membranes (5 to 20 µg of proteins/well) are incubated with [125I-Tyr11]SRIF-14 (0.05 to 0.1 nM) for 50 to 90 minutes at 37° C. (conditions dependent on the sub-type of receptor) in a HEPES buffer medium 50 mM pH 7.4, comprising 0.2% bovine serum albumin (BSA), MgCl2 5 mM, Trasylol 200 KIU/mL, Bacitracin 0.02 mg/mL, phenylmethylsulphonyl fluoride 0.02 mg/mL.
The bound [125I-Tyr11]SRIF-14 is separated from the free [125I-Tyr11]SRIF-14 by filtration through GF/C glass fibre plates (Unifilter, Perkin Elmer) pre-impregnated with 0.1% polyethylenimine (P.E.I.), using a Filtermate 96 (Perkin Elmer). The filters are washed with Tris-HCl buffer 50 mM, pH 7.4 at 4° C. and the radioactivity present is determined using a counter (TopCount, Perkin Elmer).
The data are analyzed by computer-assisted non-linear regression using XLfit 4.2 (IDBS) software.

[2] = Dynamic release test in PBS; assay type: physicochemical; details: PBS pH 7.4, 37° C., % of free compound
Experimental: Release studies can be carried out on the octapeptide compounds according to the invention in the form of gel, solid, or in suspension. Two types of tests can be envisaged: static release tests and/or dynamic tests, both are briefly described hereafter.
The experimental parameters are common to both types of tests. The release medium is a liquid medium which is physico-chemically well-controlled, preferably a PBS (phosphate buffer saline) buffer adjusted to pH 7.4 and maintained at 37° C. The release curve is defined as the concentration of the studied compound in the dissolution medium (expressed in % of free compound) as a function of time (minutes, hours, days). To initiate the tests, a know quantity of sample is placed in the dissolution medium at time 0 (t=0 min/h/d), the sample being optionally conditioned in a device which is suited to its initial physical state (gel, solid, suspension). Measurements of the concentration of the compound in the release medium are carried out by one or more analytical methods which are well known in the state of the art such as UV-visible spectrophotometry or the HPLC (High Performance Liquid Chromatography). The parameters of the analytical methods are adjusted as a function of the physico-chemical characteristics of the compounds. The tests can be carried out with various starting concentrations such as 75 mM and 226 mM in the examples presented hereafter.
For the dynamic release studies, controlled stirring or a release medium flow is applied to the samples. In this mode, the samplings and/or concentration determinations are generally automated and the studies can be carried out in systems / instruments which are standardized and well known in the state of the art (cf. European Pharmacopeia systems). For example, certain studies in dynamic mode can be carried out on samples corresponding to the order of 10 mg of pure compound placed in 100 mL of PBS introduced beforehand into standardized beakers and maintained at 37° C. The stirring and samplings / measurements are controlled by a dissolution testing instrument of device type 1 or 2 described by the European Pharmacopeia.

| Ki [1] | Dynamic release after 44 h ([2]; 75 mM starting concentration) | Dynamic release after 44 h ([2]; 226 mM starting concentration) | Compound |
| --- | --- | --- | --- |
| ≤ 5000 nM | 94% | 75% | CC(C)[C@@H]1NC(=O)[C@H](CCCCN)NC(=O)[C@@H](C)NC(=O)[C@H](Cc2ccc(O)cc2)NC(=O)[C@@H](NC(=O)[C@H](N)Cc2ccc3ccccc3c2)CSSC[C@@H](C(=O)N[C@H](C(N)=O)C(C)O)NC1=O (stereo partly drawn) [Example 4, H-D-2-Nal^1-cyclo(Cys^2Tyr^3-D-Ala^4-Lys^5-Val^6Cys^7)-Thr^8-NH2.2 CH3COOH] (H-[d2Nal]CY[dA]KVC[Thr(3ξ)]-NH2; disulfide 2-7) |
| ≤ 5 nM | 37% | 17% | CC(C)[C@@H]1NC(=O)[C@H](CCCCN)NC(=O)[C@@H](Cc2cccc3ccccc23)NC(=O)[C@H](Cc2ccc(O)cc2)NC(=O)[C@@H](NC(=O)[C@H](N)Cc2ccc3ccccc3c2)CSSC[C@@H](C(=O)N[C@H](C(N)=O)C(C)O)NC1=O (stereo partly drawn) [Example 6, H-D-2-Nal^1-cyclo(Cys^2Tyr^3-13-(1-naphthyl)-D-Ala^4-Lys^5-Val^6-Cys^7)-Thr^8-NH2.2 CH3COOH] |
| ≤ 700 nM | 100% | 93% | CC(C)[C@@H]1NC(=O)[C@H](CCCCN)NC(=O)[C@@H](Cc2c[nH]cn2)NC(=O)[C@H](Cc2ccc(O)cc2)NC(=O)[C@@H](NC(=O)[C@H](N)Cc2ccc3ccccc3c2)CSSC[C@@H](C(=O)N[C@H](C(N)=O)C(C)O)NC1=O (stereo partly drawn) [Example 3, H-D-2-Nal^1-cyclo(Cys^2-Tyr^3-D-His^4-Lys^5-Val^6-Cys^7)-Thr^8-NH2.2 CH3COOH] (H-[d2Nal]CY[dH]KVC[Thr(3ξ)]-NH2; disulfide 2-7) |
